Structures are written as SMILES.

The target in this assay is T1, ERR1 (also known as ERR-α or ERR-1) (Homo sapiens, UniProt P11474).
T1 sequence (P11474 193-421 limits assumed): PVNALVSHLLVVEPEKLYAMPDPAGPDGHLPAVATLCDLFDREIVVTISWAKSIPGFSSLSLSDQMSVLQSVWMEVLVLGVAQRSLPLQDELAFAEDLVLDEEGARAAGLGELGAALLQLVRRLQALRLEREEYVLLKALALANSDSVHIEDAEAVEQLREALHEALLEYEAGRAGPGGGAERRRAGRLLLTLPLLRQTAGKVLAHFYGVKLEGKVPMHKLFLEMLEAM
Put plainly: TR-FRET assay (disruption of co-activator peptide binding to ERR1 LBD). It is filed as biochemical. Conditions: 6 nM 6His-ERR1LBD, 6 nM GST-SRC-2 peptide; average of 3 independent experiments. Put shortly:
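Homogeneous TR-FRET measuring displacement of GST-hSRC2 co-activator peptide (6 nM) from His-tagged ERR1 LBD (6 nM), detected with α-GST Eu cryptate (30 nM) and α-His-XL665 (7.5 nM). Buffer 25 mM Tris pH 8, 2.5 mM Hepes, 20 mM KCl, 1 mM DTT, 0.05 mg/mL delipidated BSA; equilibration 4-18 h at 25° C. Hyperbolic dose-response fit, mean of 3 experiments.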
A general note: Time-resolved FRET reads energy transfer from a long-lived donor to a nearby acceptor.
As a reminder, the EC50 is the concentration that produces a half-maximal response. Lower therefore signals an effect from little substance. Regarding `COC(=O)C1(N2C(=O)S/C(=C\c3ccc4c(cnn4Cc4ccc(Cl)cc4C(F)(F)F)c3)C2=O)CCN(C)CC1` [Compound 213, Methyl 4-[(5Z)-5-({1-[4-chloro-2-(trifluoromethyl)benzyl]-1H-indazol-5-yl}methylidene)-2,4-dioxo-1,3-thiazolidin-3-yl]-1-methylpiperidine-4-carboxylate], the EC50 came out at 28 nM.
`O=C(O)CN1C(=O)S/C(=C\c2ccc3c(c2)c(Br)nn3Cc2ccc(Cl)cc2C(F)(F)F)C1=O` [Compound 407, [(5Z)-5-({3-Bromo-1-[4-chloro-2-(trifluoromethyl)benzyl]-1H-indazol-5-yl}methylidene)-2,4-dioxo-1,3-thiazolidin-3-yl]acetic acid] registered an EC50 of 7 nM.
`O=C1S/C(=C\c2ccc3c(ccn3Cc3ccc(Cl)cc3C(F)(F)F)c2)C(=O)N1C[C@H]1COCCN1` [Compound 256, (5Z)-5-({1-[4-Chloro-2-(trifluoromethyl)benzyl]-1H-indol-5-yl}methylidene)-3-[(3S)-morpholin-3-ylmethyl]-1,3-thiazolidine-2,4-dione] came in with an EC50 of 110 nM.
With `COc1ccc(Cn2ncc3cc(/C=C4\SC(=O)N(CCN5CC[C@@H](F)C5)C4=O)ccc32)c(C(F)(F)F)c1` [Compound 13, (5Z)-3-{2-[(3R)-3-Fluoropyrrolidin-1-yl]ethyl}-5-[(1-{[4-(methyloxy)-2-(trifluoromethyl)phenyl]methyl}-1H-indazol-5-yl)methylidene]-1,3-thiazolidine-2,4-dione], a half-maximal response (EC50) required 43 nM.
On to `CN1CCO[C@H](CN2C(=O)S/C(=C\c3ccc4c(cnn4Cc4ccc(Cl)cc4C(F)(F)F)c3)C2=O)C1` [Compound 192, (5Z)-5-({1-[4-Chloro-2-(trifluoromethyl)benzyl]-1H-indazol-5-yl}methylidene)-3-{[(2S)-4-methylmorpholin-2-yl]methyl}-1,3-thiazolidine-2,4-dione], for which the EC50 worked out at 45 nM.
For `COc1ccc(Cn2ncc3cc(/C=C4\SC(=O)N(C5CCC(C(=O)NS(C)(=O)=O)CC5)C4=O)ccc32)c(C(F)(F)F)c1` (stereo not shown) [Compound 24, 4-[(5Z)-5-({1-[4-Methoxy-2-(trifluoromethyl)benzyl]-1H-indazol-5-yl}methylidene)-2,4-dioxo-1,3-thiazolidin-3-yl]-N-(methylsulfonyl) cyclohexanecarboxamide] the value was 12 nM; for `Cc1nn(C)c(Cl)c1S(=O)(=O)NCCN1C(=O)S/C(=C\c2ccc3c(cnn3Cc3ccc(Cl)cc3C(F)(F)F)c2)C1=O` [Compound 418, 5-Chloro-N-{2-[(5Z)-5-({1-[4-chloro-2-(trifluoromethyl)benzyl]-1H-indazol-5-yl}methylidene)-2,4-dioxo-1,3-thiazolidin-3-yl]ethyl}-1,3-dimethyl-1H-pyrazole-4-sulfonamide], 83 nM; for `O=C(O)c1ccc(S(=O)(=O)NCCN2C(=O)S/C(=C\c3ccc4c(cnn4Cc4ccc(Cl)cc4C(F)(F)F)c3)C2=O)o1` [Compound 421, 5-({2-[(5Z)-5-({1-[4-Chloro-2-(trifluoromethyl)benzyl]-1H-indazol-5-yl}methylidene)-2,4-dioxo-1,3-thiazolidin-3-yl]ethyl}sulfamoyl)furan-2-carboxylic acid], 34 nM.
For `CCN1CC[C@@H](N2C(=O)S/C(=C\c3ccc4c(cnn4Cc4ccc(Cl)cc4C(F)(F)F)c3)C2=O)[C@@H](F)C1` (relative stereo) [Compound 332, (5Z)-5-({1-[4-Chloro-2-(trifluoromethyl)benzyl]-1H-indazol-5-yl}methylidene)-3-[cis-1-ethyl-3-fluoropiperidin-4-yl]-1,3-thiazolidine-2,4-dione] the value was 110 nM.
In turn, `NC1(CCN2C(=O)S/C(=C\c3ccc4c(cnn4Cc4ccc(Cl)cc4C(F)(F)F)c3)C2=O)CCOCC1` [Compound 312, (5Z)-3-[2-(4-Aminotetrahydro-2H-pyran-4-yl)ethyl]-5-({1-[4-chloro-2-(trifluoromethyl)benzyl]-1H-indazol-5-yl}methylidene)-1,3-thiazolidine-2,4-dione] yielded an EC50 of 65 nM.

For the origin of these results see US8796256B2 (Janssen Pharmaceutica NV, priority 2010, dated 2014).
